As usually defined, the IC50 is the concentration needed to halve the response being measured. Higher therefore signals a need for much substance. As a reminder, the inhibition is the percentage by which the read-out fell short of the control. A lower inhibition goes with a weak effect.

The target in the first experiment is human SGLT1 (Homo sapiens (Human), UniProt P13866). Briefly: SGLT1 inhibitory activity: 14C-AMG uptake into CHO-K1 cell line stably expressing human SGLT1. The class given is cell-based. The following applies: 14C-AMG uptake, CHO-K1 cells expressing human SGLT1. The method, then: SGLT1 inhibitory activity of a test compound (IC50 value) was calculated based on an amount of intake into a cell of labeled α-methyl-D-glucopyranoside (^14C-AMG) which is transported by SGLT1.
Chain of human SGLT1 (P13866 whole entry): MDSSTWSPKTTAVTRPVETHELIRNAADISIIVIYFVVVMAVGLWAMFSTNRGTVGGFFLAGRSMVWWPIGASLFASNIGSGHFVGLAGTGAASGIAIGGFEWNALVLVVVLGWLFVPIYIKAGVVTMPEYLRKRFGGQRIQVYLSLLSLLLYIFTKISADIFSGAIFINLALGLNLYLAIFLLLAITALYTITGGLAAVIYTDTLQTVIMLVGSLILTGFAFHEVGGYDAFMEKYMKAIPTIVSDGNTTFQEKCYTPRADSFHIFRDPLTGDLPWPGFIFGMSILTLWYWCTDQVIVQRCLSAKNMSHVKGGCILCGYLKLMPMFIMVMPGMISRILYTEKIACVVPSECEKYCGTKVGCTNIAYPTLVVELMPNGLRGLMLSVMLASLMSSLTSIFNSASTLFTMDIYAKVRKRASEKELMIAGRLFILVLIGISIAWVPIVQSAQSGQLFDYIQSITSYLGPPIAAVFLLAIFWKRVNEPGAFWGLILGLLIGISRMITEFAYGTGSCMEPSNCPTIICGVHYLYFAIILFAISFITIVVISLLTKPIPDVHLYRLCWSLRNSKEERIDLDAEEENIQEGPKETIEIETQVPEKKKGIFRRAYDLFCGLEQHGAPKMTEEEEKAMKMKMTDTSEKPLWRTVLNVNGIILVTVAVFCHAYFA
1) Construction of Human SGLT1 Expression Plasmid
A DNA fragment containing human SGLT1, wherein NheI recognition and cleavage sequence was added upstream of a Kozac consensus sequence of the vector; and a stop codon (TAG) and a SalI recognition and cleavage sequence was added just downstream of a coding region of the human SGLT1, was amplified by PCR using pCMV6-hSGLT1 (OriGene) as a template. The purified DNA fragment was cleaved by restriction enzymes NheI and SalI, and the obtained fragment was ligated into pcDNA3.1 (+) which was cleaved by NheI and XhoI to construct human SGLT1 expression plasmid.
2) Establishment of Stable Cell Lines Expressing Human SGLT1
A human SGLT1 expression plasmid pcDNA-hSGLT1 was transfected into CHO-K1 cells by Lipofectamine-2000 (Invitrogen). The cells were cultured in the presence of G418 (Nakalai tesque) and drug-resistant cells were selected. A cell line having the highest S/B ratio of an amount of ^14C-AMG uptake per cell treated by solvent to an amount of ^14C-AMG uptake per cell treated by phlorizin (SGLT inhibitor) was selected from the drug-resistant cells as a stable cell lines expressing human SGLT1.
3) Evaluation of SGLT1 Inhibitory Activity
The stable cell line expressing human SGLT1 was seeded at 5×10^4 cells/well on BioCoat™ Poly-D-Lysine 96 well plate with Lid (Becton Dickinson and Company) and cultured at 37° C. under 5% CO2 overnight. The medium was replaced with 100 μL/well of a Na (−) buffer (140 mM choline chloride, 2 mM KCl, 1 mM MgCl2, 1 mM CaCl2, 10 mM HEPES, 5 mM Tris, pH7.4) followed by incubation for 20 minutes at 37° C. under 5% CO2. After removing the Na (−) buffer, a test compound solution which was prepared from Na (+) buffer (140 mM NaCl, 2 mM KCl, 1 mM MgCl2, 1 mM CaCl2, 10 mM HEPES, 5 mM Tris, pH7.4) containing BSA was added thereto at 40 μL/well. In addition, Na (+) buffer containing 8 kBq of ^14C-AMG and 2 mM AMG was added thereto at 40 μL/well, and was mixed well. Na (−) buffer containing BSA was added to a blank well at 40 μL/well and additionally adding a Na (+) buffer containing 8 kBq of ^14C-AMG and 2 mM AMG, and was mixed well. Cells were incubated for 1 hour at 37° C. under 5% CO2. After the reaction, the cells were washed twice with 100 μL/well of iced wash buffer (100 mM AMG, 140 mM choline chloride, 2 mM KCl, 1 mM MgCl2, 1 mM CaCl2, 10 mM HEPES, 5 mM Tris, pH7.4), then lysed in 50 μL/well of a 0.2N aqueous solution of NaOH. The cell lysate was transferred to OptiPlate96 (Perkin-Elmer) and 100 μL/well of MicroScint-40 (Perkin-Elmer) was dispensed. The radioactivity was counted by TOPCOUNT NXT (Perkin-Elmer).
A data was obtained by deducting the average value (CPM) of blank wells from the average value (CPM) of each treated well. The inhibition ratio (%) was calculated by the following formula: inhibition rate (%)=[(A−B)/A]×100, where A is a data of the solvent control, and B is a data of a test compound.
`CCCc1cccc(-c2cc(NC(=O)C3COC(=O)C3)nn2-c2ccccc2)c1` (racemic) [Example 7, 5-oxotetrahydrofuran-3-carboxylic acid[1-phenyl-5-(3-propylphenyl)-1H-pyrazol-3-yl]amide] had an IC50 of 33 nM.

For the compound `O=C1CC(C(=O)Nc2cc(-c3ccccc3)n(-c3ccccc3)n2)CN1` (racemic) [Example 9], the half-inhibitory concentration (IC50) was found to be 1600 nM.

`O=C1CCC(C(=O)Nc2cc(-c3ccccc3)n(-c3ccccc3)n2)CN1` (racemic) [Example 10] registered an IC50 of 5500 nM.

For `CCCc1cccc(-c2cc(NC(=O)C3CNC(=O)C3)nn2-c2ccccc2)c1` (racemic) [Example 11], the half-inhibitory concentration (IC50) worked out at 4.6 nM.

Turning to `CCCn1nc(NC(=O)C2CNC(=O)C2)cc1-c1ccccc1` (racemic) [Example 12], the half-maximal inhibitory concentration (IC50) is 4400 nM.

As to `CCCCCCn1nc(NC(=O)C2CNC(=O)C2)cc1-c1ccccc1` (racemic) [Example 13], half-maximal inhibition (IC50) was put at 250 nM.

On to `CCCc1cccc(-c2cc(NC(=O)C3CNC(=O)C3)nn2C(C)C)c1` (racemic) [Example 17], for which the IC50 came to 66 nM.

Compound `CCCc1cccc(-c2cc(NC(=O)C3CNC(=O)C3)nn2CC(C)C)c1` (racemic) [Example 18] registered a half-inhibitory concentration (IC50) of 31 nM.

`CCCc1cccc(-c2cc(NC(=O)C3(C)CNC(=O)C3)nn2-c2ccccc2)c1` (racemic) [Example 21] returned an IC50 of 680 nM.

On to `CCCc1cccc(-c2cc(NC(=O)C3CNC(=O)C3)nn2CC)c1` (racemic) [Example 24], for which the IC50 amounted to 130 nM.

For the compound `CCCc1cccc(-c2cc(NC(=O)C3CNC(=O)C3)nn2C2CCCCC2)c1` (racemic) [Example 32], inhibition was half-maximal at 12 nM (IC50).

As to `CCCc1cccc(-c2cc(NC(=O)C3CNC(=O)C3)nn2C(C)(C)C)c1` (racemic) [Example 42], the IC50 was determined as 190 nM.

On to `CCCc1cccc(-c2cc(NC(=O)C3CNC(=O)C3CC)nn2-c2ccccc2)c1` (racemic) [Example 60], for which the IC50 was 17 nM.

`CCCc1cccc(-c2cc(NC(=O)C3CNC(=O)C3CCO)nn2-c2ccccc2)c1` (racemic) [Example 115] yielded an IC50 of 41 nM.

Compound `CCCc1cccc(-c2cc(NC(=O)C3CC(=O)NC3C)nn2-c2ccccc2)c1` (single isomer, unassigned) [Example 19] registered an IC50 of 33 nM.

With `CCCc1cccc(-c2cc(NC(=O)C3CC(=O)NC3C)nn2-c2ccccc2)c1` (single isomer, unassigned) [Example 20], the IC50 came to 150 nM.

Take `CC1(C)CCCC(c2cc(NC(=O)[C@H]3CNC(=O)C3)nn2-c2ccccc2)C1` (single isomer, unassigned) [Example 88]: the midpoint of inhibition, the IC50, lay at 17 nM.

In the case of `CC1(C)CCCC(c2cc(NC(=O)[C@H]3CNC(=O)C3)nn2-c2ccccc2)C1` (single isomer, unassigned) [Example 89], half-maximal inhibition (IC50) required 140 nM.

As to `O=C1CCC(C(=O)Nc2cc(-c3cccc(OC(F)(F)F)c3)n(-c3ccccc3)n2)CN1` (single isomer, unassigned) [Example 150], the IC50 was found to be 7.7 nM.

On to `CCC(F)(F)c1cccc(-c2cc(NC(=O)C3CCC(=O)NC3)nn2-c2ccccc2)c1` (single isomer, unassigned) [Example 151], for which the IC50 is 19 nM.

Turning to `O=C1CCC(C(=O)Nc2cc(-c3cccc(OC(F)(F)F)c3)n(-c3ccc(F)cc3)n2)CN1` (single isomer, unassigned) [Example 165], inhibition was half-maximal at 22 nM (IC50).

Turning to `O=C1CCC(C(=O)Nc2cc(-c3cccc(OC(F)(F)F)c3)n(-c3ccccc3F)n2)CN1` (single isomer, unassigned) [Example 167], half-maximal inhibition (IC50) was put at 15 nM.

Consider `O=C1CCC(C(=O)Nc2cc(-c3cccc(OC(F)(F)F)c3)n(-c3cccc(F)c3)n2)CN1` (single isomer, unassigned) [Example 168], for which the IC50 was 36 nM.

`CCC(F)(F)c1cccc(-c2cc(NC(=O)C3CCC(=O)NC3)nn2-c2cccc(F)c2)c1` (single isomer, unassigned) [Example 171] returned an IC50 of 8.3 nM.

The compound `CCC(F)(F)c1cccc(-c2cc(NC(=O)C3CCC(=O)NC3)nn2C2CCOCC2)c1` (single isomer, unassigned) [Example 185] came in with an IC50 of 66 nM.

As to `CC(C)(C)c1cccc(-c2cc(NC(=O)C3CCC(=O)NC3)nn2C2CCOCC2)c1` (single isomer, unassigned) [Example 186], the IC50 is 75 nM.

Regarding `O=C1CCC(C(=O)Nc2cc(-c3cccc(OC(F)(F)F)c3)n(C3CCOCC3)n2)CN1` (single isomer, unassigned) [Example 189], 200 nM corresponded to half-maximal inhibition (IC50).

The experiment is the same for the next values; noted with them: 14C-AMG uptake, CHO-K1 cells stably expressing human SGLT1.
For the compound `CCCc1cccc(-c2cc(NC(=O)C3CCS(=O)(=O)C3)nn2-c2ccccc2)c1` (racemic) [Example 320], the midpoint of inhibition, the IC50, lay at 3 nM.

Compound `O=C(Nc1cc(-c2cccc(COCC(F)(F)F)c2)n(-c2ccccc2)n1)C1CNC(=O)C12CC2` (single isomer, unassigned) [Example 250, 4-oxo-5-azabispiro[2.4]heptane-7-carboxylic acid{1-phenyl-5-[3-(2,2,2-trifluoroethoxymethyl)phenyl]-1H-pyrazol-3-yl}amide] showed an IC50 of 3.4 nM.

Compound `CCCc1cccc(-c2cc(NC(=O)C3CNC(=O)C3CC)nn2-c2ccccc2)c1` (single isomer, unassigned) [Example 307] had an IC50 of 6 nM.

`CCC1C(=O)NCC1C(=O)Nc1cc(-c2cccc(OC(F)(F)F)c2)n(-c2ccccc2)n1` (single isomer, unassigned) [Example 308] gave an IC50 of 16 nM.

As to `CCCc1cccc(-c2cc(NC(=O)C3CNC(=O)C3CC)nn2-c2ccccc2)c1` (single isomer, unassigned) [Example 309], half-maximal inhibition (IC50) was put at 49 nM.

Take `CC(C)(C)COCc1cccc(-c2cc(NC(=O)C3CCC(=O)NC3)nn2-c2ccccc2)c1` (single isomer, unassigned) [Example 333]: the IC50 is 20 nM.

Consider `CC(C)(C)OCc1cccc(-c2cc(NC(=O)C3CCC(=O)NC3)nn2-c2ccccc2)c1` (single isomer, unassigned) [Example 336], for which the IC50 came out at 25 nM.

The compound `O=C1CCC(C(=O)Nc2cc(-c3cccc(COCCC(F)(F)F)c3)n(-c3ccccc3)n2)CN1` (single isomer, unassigned) [Example 338] had an IC50 of 17 nM.

`CC(C)(C)CCOc1cccc(-c2cc(NC(=O)C3CCC(=O)NC3)nn2-c2ccccc2)c1` (single isomer, unassigned) [Example 342] yielded an IC50 of 45 nM.

`CCCc1cccc(-c2cc(NC(=O)C3CNC(=O)C34CC4)nn2-c2ccccc2)c1` (single isomer, unassigned) [Example 360] had an IC50 of 1.5 nM.

With `CCCc1cccc(-c2cc(NC(=O)C3CC(=O)NC3C)nn2-c2ccccc2)c1` (single isomer, unassigned) [Example 404], the midpoint of inhibition, the IC50, lay at 18 nM.

As to `O=C1CCC(C(=O)Nc2cc(-c3cccc(COCC(F)(F)F)c3)n(-c3ccccc3)n2)CN1` (single isomer, unassigned) [Example 560], the IC50 came to 24 nM.

Still in this experiment, the particulars now being: CHO-K1, at 0.1 uM.
Take `CC1C(=O)NC(O)C1C(=O)Nc1cc(-c2cccc(OC(F)(F)F)c2)n(-c2ccc(F)cc2)n1` (racemic) [Example 259]: the inhibition at 0.1 µM worked out at 20%.

`CCCc1cccc(-c2cc(NC(=O)C3CNC(=O)C(C)C3)nn2-c2ccccc2)c1` (racemic) [Example 292] yielded an inhibition at 0.1 µM of 43%.

The same experiment, now with this note: CHO-K1, at 0.3 uM.
`CC1C(=O)NC(O)C1C(=O)Nc1cc(-c2cccc(OC(F)(F)F)c2)n(-c2ccccc2)n1` (racemic) [Example 254] yielded an inhibition at 0.3 µM of 49%.

The experiment is the same for the next values; noted with them: at 0.1 uM.
In the case of `CCCc1cccc(-c2cc(NC(=O)C3CNC(=O)C(C)C3)nn2-c2ccccc2)c1` (racemic) [Example 293], the “human SGLT1 % Inhibition” value amounted to 27%.
